Consider ten compounds from US4035503A, “Xanthene and thioxanthene derivatives, compositions thereof and a method of preparation thereof” (Kefalas A/S, priority 1973, dated 1977).

In the assay the test system is methylphenidate. The assay is described as follows: Methylphenidate antagonism in mice (antagonism of biting of corrugated paper). The class given is in vivo, NMRI male mice. The following applies: for ED50: Mus musculus; for ED50 / Methylphenidate antagonism, duration of peak effect: mice; for Methylphenidate antagonism, comparison in words (peak effect and duration): compared within the table, with known substances. The text has this: The test may briefly be described as follows:
As animals were used NMRI male mice weighting 18-25 grams.
5 × 2 mice are used for each dose level.
[…] At each time interval separate groups of mice were used. After administration of methylphenidate the mice are placed in the observation cages, 2 in each cage, where they remain for one hour. The cages are placed on corrugated paper, the corrugations facing upwards. It is examined whether or not the mice have been biting the corrugated paper. […] At each time interval separate groups of mice were used. The peak effect was determined for the test substances and also for a number of known neuroleptics.
The test was carried out on a number of the novel compounds of Formula I and on a number of closely related thiaxanthene derivatives.

The mark [1] stands for this setting: ip, i.p. test substance, 24 h after administration, read-out: Methylphenidate antagonism, ED50 24 h i.p.
Where [2] appears, read: route p.c. [sic], at peak effect, read-out: Methylphenidate antagonism, Peak effect ED50 p.c.

Structures are written as SMILES. Where two headings read alike, the source gives them in different places. Where only a bound is given, the exact number is not on record here.

`CN(C)CC=CC1c2ccccc2Sc2ccc(Cl)cc21` (stereo not drawn) [Lu 8-030, 2-Chloro-9-(3-dimethylamino-1-propenyl)-thioxanthene]: the “Methylphenidate antagonism, comparison in words (peak effect and duration)” value (from here on “Methylphenidate antagonism, comparison”) is recorded as “a more prolonged activity while the peak effect remains at the same level or is somewhat higher”. Moreover, under setting [1], the ED50 was greater than 20 mg/kg. The ED50 under setting [2] was found to be 5.5 mg/kg. In addition, for the setting “i.p. test substance”, the “Methylphenidate antagonism, duration of peak effect” value is 3 h.

`OCCN1CCN(CC=CC2c3ccccc3Sc3ccc(C(F)(F)F)cc32)CC1` (stereo not drawn) [Lu 9-212, 2-Trifluoromethyl-9-(3-(4-(2-hydroxyethyl)-piperazin-1-yl)-1propenyl) thioxanthene]: the “Methylphenidate antagonism, comparison” value was “a more prolonged activity while the peak effect remains at the same level or is somewhat higher”. For the same compound, the ED50 under setting [1] is greater than 10 mg/kg. Further, the ED50 under setting [2] was determined as 0.13 mg/kg. For the same compound, the “Methylphenidate antagonism, duration of peak effect” value (i.p. test substance) is reported as 10 h.

Turning to `OCCN1CCN(CC=CC2c3ccccc3Sc3ccc(Cl)cc32)CC1` (stereo not drawn) [Lu 9-244, 2-Chloro-9-(3-(4-(2-hydroxyethyl)piperazin-1-yl)-1-propenyl) thioxanthene], the “Methylphenidate antagonism, comparison” value is reported as “a more prolonged activity while the peak effect remains at the same level or is somewhat higher”. In addition, the ED50 under setting [1] worked out at 14.1 mg/kg. Moreover, the ED50 under setting [2] was found to be 0.22 mg/kg. Moreover, where the note is “i.p. test substance”, the “Methylphenidate antagonism, duration of peak effect” value was 10 h.

As to `OCCN1CCN(CC=CC2c3ccc(F)cc3Sc3ccc(C(F)(F)F)cc32)CC1` (stereo not drawn) [Lu 10-153, 2-Trifluoromethyl-6-fluoro-9-(3-(4-(2-hydroxyethyl)piperazine1-yl)-1-propenyl)thioxanthene], the “Methylphenidate antagonism, comparison” value was “unique in combining at the same time the most potent peak effect but also the long lasting effect”. In addition, the ED50 under setting [1] was determined as 0.06 mg/kg. The ED50 under setting [2] turned out to be 0.03 mg/kg. For the same compound, the “Methylphenidate antagonism, duration of peak effect” value (i.p. test substance) worked out at 30 h.

With `CN(C)CC=CC1c2ccc(F)cc2Sc2ccc(C(F)(F)F)cc21` (stereo not drawn) [Lu 11-186, 2-Trifluoromethyl-6-fluoro-9-(3-dimethylamino-1-propenyl)-thioxanthene], the ED50 under setting [2] turned out to be 0.08 mg/kg. In addition, for the setting “i.p. test substance”, the “Methylphenidate antagonism, duration of peak effect” value stood at 8 h.

Consider `OCCC1CCN(CC=CC2c3ccc(F)cc3Oc3ccc(C(F)(F)F)cc32)CC1` (stereo not drawn) [Lu 11-200, 2-Trifluoromethyl-6-fluoro-9-(3-(4-(2-hydroxyethyl)piperidin-1-yl)-1-propenyl) xanthene], for which the ED50 by setting is: under setting [1], 1.6 mg/kg; under setting [2], 0.2 mg/kg. Moreover, where the note is “i.p. test substance”, the “Methylphenidate antagonism, duration of peak effect” value worked out at 17 h.

Consider `OCCC1CCN(CC=CC2c3ccc(F)cc3Sc3ccc(C(F)(F)F)cc32)CC1` (stereo not drawn) [Lu 12-001], for which the 50% effective dose (ED50) runs as follows: under setting [1], 0.1 mg/kg; under setting [2], 0.2 mg/kg. For the same compound, under “i.p. test substance”, the “Methylphenidate antagonism, duration of peak effect” value is listed as 72 h.

For `CN(C)CC/C=C1/c2ccccc2Sc2ccc(Cl)cc21` [α-chlorprothixen, trans-9-(3-dimethylaminopropylidene)-2-chloro-thioxanthene, reference compound], the ED50 reads like this: under setting [1], greater than 20 mg/kg; under setting [2], 2.6 mg/kg. Further, the “Methylphenidate antagonism, duration of peak effect” value (i.p. test substance) was determined as 2 h.

`OCCN1CCN(CC/C=C2/c3ccccc3Sc3ccc(Cl)cc32)CC1` [α-clopenthixol, 9-[3-(4-(2-hydroxyethyl)piperazinyl-(1))-propylidene]-2-chloro-thioxanthene, reference compound]: the median effective dose (ED50) by setting is: under setting [1], greater than 20 mg/kg; under setting [2], 1.3 mg/kg. In addition, the “Methylphenidate antagonism, duration of peak effect” value (i.p. test substance) stood at 6 h.

On to `OCCN1CCN(CC/C=C2/c3ccccc3Sc3ccc(C(F)(F)F)cc32)CC1` [α-flupenthixol, 9-[3-(4-(2-hydroxyethyl)piperazinyl-(1))-propylidene]-2-trifluoromethyl-thioxanthene, reference compound], for which the ED50 was greater than 20 mg/kg under setting [1] and 0.22 mg/kg under setting [2]. For the same compound, the “Methylphenidate antagonism, duration of peak effect” value (i.p. test substance) is on record as 6 h.
